Results as given in article PMC5519068 (PLoS ONE, 2017).
“Also recorded” adds a separate entry of the source.

Assays:
MOLM-13 cells = assay: Growth inhibition, CellTiter-Blue viability, 72 h; type: cell-based; conditions: Homo sapiens, MOLM-13 (Flt3-ITD+), read-out: Growth Suppression in AML Cell Lines (IC50, nM) MOLM-13
Method: (§1) Cells were seeded at a density of 100,000 cells per 1.0 ml in 48-well culture plates. Compounds were added to various concentrations while holding the DMSO concentration constant at 0.1%. Cell viability was assessed 72 hours later using the CellTiter-Blue Cell Viability assay (Promega) according to the manufacturer’s protocol and a SpectraMax Multi-Mode Microplate Reader (Molecular Devices). IC50 values were determined by non-linear regression analysis of concentration-response curves using the GraphPad PRISM software package (version 6.0). Apoptosis was determined using the same cell culture conditions and the Apo-ONE Homogeneous Caspase-3/7 Assay (Promega) and the manufacturer’s protocol.
(§2) Fig 2 Fes tyrosine kinase inhibitors induce growth arrest in Flt3-ITD^+ AML cell lines. A) The Flt3-ITD^+ cell lines MV4-11, MOLM-13, and MOLM-14, along with THP-1 (wild-type FLT3) were incubated with each of the kinase inhibitors shown over a range of concentrations, and cell viability was measured 72 h later using the CellTiter-Blue Assay (see Materials and methods). Raw fluorescence data were corrected for background and then normalized to cultures grown in the presence of the DMSO carrier solvent. Each assay condition was performed in triplicate, and results are presented as the mean of the normalized values ± the SD. The resulting dose-response curves were fitted by non-linear regression analysis, and the resulting IC50 values are shown in Table 1.

MOLM-14 cells = assay: Growth inhibition, CellTiter-Blue viability, 72 h; type: cell-based; conditions: Homo sapiens, MOLM-14 (Flt3-ITD+), read-out: Growth Suppression in AML Cell Lines (IC50, nM) MOLM-14
Method: as §1, §2

MV4-11 cells = assay: Growth inhibition, CellTiter-Blue viability, 72 h; type: cell-based; conditions: Homo sapiens, MV4-11 (Flt3-ITD+), read-out: Growth Suppression in AML Cell Lines (IC50, nM) MV4-11
Method: as §1, §2

THP-1 cells [1] = assay: Growth inhibition, CellTiter-Blue viability, 72 h; type: cell-based; conditions: Homo sapiens, THP-1 (wild-type Flt3), read-out: Growth Suppression in AML Cell Lines (IC50, nM) THP-1
Method: as §1, §2

[2] = target: T1, recombinant full-length Fes (Homo sapiens, UniProt P07332); assay: In vitro kinase assay (Z'-LYTE); type: biochemical; conditions: highest concentration tested 100 μM
T1 construct: in vitro kinase assays using recombinant purified full-length Fes; made in house; host or cells: E. coli
T1 sequence (P07332 whole entry): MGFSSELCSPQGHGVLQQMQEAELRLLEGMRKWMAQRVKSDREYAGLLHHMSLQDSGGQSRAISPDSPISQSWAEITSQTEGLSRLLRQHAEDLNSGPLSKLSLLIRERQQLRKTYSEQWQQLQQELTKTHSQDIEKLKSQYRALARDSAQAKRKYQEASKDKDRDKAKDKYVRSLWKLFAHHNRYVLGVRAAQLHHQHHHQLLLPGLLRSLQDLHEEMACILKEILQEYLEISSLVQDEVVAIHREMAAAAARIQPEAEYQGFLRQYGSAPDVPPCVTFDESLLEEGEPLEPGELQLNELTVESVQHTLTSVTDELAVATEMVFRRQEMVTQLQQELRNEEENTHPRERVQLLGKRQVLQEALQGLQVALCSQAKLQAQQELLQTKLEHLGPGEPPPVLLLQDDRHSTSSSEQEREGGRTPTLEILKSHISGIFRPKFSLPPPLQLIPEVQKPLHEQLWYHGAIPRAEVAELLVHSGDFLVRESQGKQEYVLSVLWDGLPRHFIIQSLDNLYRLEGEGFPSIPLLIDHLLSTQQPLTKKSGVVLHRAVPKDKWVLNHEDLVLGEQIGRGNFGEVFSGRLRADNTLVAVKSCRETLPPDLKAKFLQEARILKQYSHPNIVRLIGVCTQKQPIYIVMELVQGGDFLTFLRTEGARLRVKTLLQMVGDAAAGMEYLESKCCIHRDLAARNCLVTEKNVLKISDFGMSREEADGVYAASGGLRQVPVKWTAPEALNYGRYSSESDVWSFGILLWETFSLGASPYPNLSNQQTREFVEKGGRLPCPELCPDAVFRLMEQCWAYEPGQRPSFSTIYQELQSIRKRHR
Method: Recombinant protein kinase assays were performed using the FRET-based Z’-LYTE Kinase Assay according to the manufacturer’s instructions (Thermo Fisher Scientific). […] The Tyr-2 peptide was used as substrate for all recombinant kinases. Kinases were preincubated with inhibitors for 30 minutes, followed by addition of ATP and peptide substrate for 1 hour. Reactions were quenched by addition of development reagent, followed by incubation for an additional hour prior to fluorescence measurements on a SpectraMax M5 microplate reader. IC50 values were calculated by non-linear regression analysis of the resulting concentration-response curves using GraphPad PRISM.

[3] = test system: T2, Fes in MV4-11 and MOLM-14 cells; assay: Immunoprecipitation/immunoblot of Fes activation loop phosphorylation (pY713) in AML cells; type: cell-based, human; conditions: compound at in vitro IC90 for Fes, 16 h (tandutinib: IC90 for Flt3-ITD, 6 h)
T2 construct: endogenous in cells; host or cells: MV4-11 and MOLM-14
Method: (§3) AML cells (2.5 x 10^6 in 5 mL) were cultured in the presence of kinase inhibitors or DMSO alone for 6 to 16 hours prior to lysis by sonication in RIPA buffer (50 mM Tris-HCl, pH 7.4, 150 mM NaCl, 1 mM EDTA, 1% Triton X-100, 0.1% SDS, 1% sodium deoxycholate) supplemented with 1 mM sodium orthovanadate, 1 mM sodium fluoride, 5 units/ml Benzonase (Novagen), and SigmaFAST EDTA-free protease inhibitor cocktail (Sigma). Flt3 and Fes were immunoprecipitated from 1 mg of cell lysate with 2 μg of antibody and 25 μL of protein G-Sepharose beads (Life Technologies) overnight at 4°C. Immunoprecipitates were washed three times by resuspension in 1.0 ml of RIPA buffer. Immunoprecipitated proteins were separated by SDS-PAGE, transferred to PVDF membranes and probed with the indicated antibodies followed by alkaline phosphatase-linked secondary antibodies. CDP-Star Western Blot Chemiluminescence Reagent (Perkin-Elmer) was used for detection.
(§4) Fes and Flt3 kinase proteins were then immunoprecipitated from cell lysates, followed by immunoblotting with antibodies to phosphotyrosine (pTyr), the Fes activation loop phosphotyrosine (pY713), as well as the Flt3 and Fes proteins.

[4] = test system: TF-1 cells transduced with an empty retroviral vector (Control); assay: Inhibitor sensitivity of TF-1 cell populations, CellTiter-Blue, 72 h; type: cell-based, human
Method: as §1
(§5) For each retroviral transduction, TF-1 cells (1 x 10^6) were suspended in 5 mL of undiluted viral supernatant and plated in one well of a 6-well tissue culture dish. Polybrene (Sigma) was added to a final concentration of 4 μg/mL and the TF-1 cells were centrifuged at 1000 x g for 3 hours to enhance retroviral mediated gene transfer. After centrifugation, the virus was removed and replaced with fresh medium.
(§6) Raw fluorescence data were corrected for background and then normalized to cultures grown in the presence of the DMSO carrier solvent. Each condition was performed in triplicate, and results are presented as the mean of the normalized values ± the SD. The resulting dose-response curves were fitted by non-linear regression analysis for estimation of the IC50 values (see Table 2). […] Fes and Flt3 kinase proteins were then immunoprecipitated from cell lysates followed by immunoblotting with antibodies to phosphotyrosine (pTyr), the Fes activation loop phosphotyrosine (pY713), as well as the Flt3 and Fes proteins.

TF-1/Flt3-D835Y cells = assay: as above; type: cell-based, human; conditions: Homo sapiens, TF-1, 72 h, read-out: Inhibitor sensitivity of TF-1 Cell Populations (IC50, nM) Flt3-D835Y
Method: as §1, §5, §6

TF-1/Flt3-ITD cells = assay: as above; type: cell-based, human; conditions: Homo sapiens, TF-1, 72 h, read-out: Inhibitor sensitivity of TF-1 Cell Populations (IC50, nM) Flt3-ITD
Method: as §1, §5, §6

[5] = test system: TF-1 cells expressing Flt3-WT; assay: as above; type: cell-based; conditions: Homo sapiens, TF-1, 72 h, read-out: Inhibitor sensitivity of TF-1 Cell Populations (IC50, nM) Flt3-WT
Method: as §1, §5, §6

[6] = test system: Flt3-ITD+ AML cell lines (MV4-11, MOLM-13, MOLM-14); assay: Growth inhibition across Flt3-ITD+ AML cell lines; type: cell-based; conditions: Homo sapiens, 72 h, read-out: IC50 values for growth inhibition, range over the Flt3-ITD+ AML cell lines
Method: as §1
Raw fluorescence data were corrected for background and then normalized to cultures grown in the presence of the DMSO carrier solvent. Each assay condition was performed in triplicate, and results are presented as the mean of the normalized values ± the SD.

[7] = test system: Flt3-ITD+ AML cell lines (MV4-11, MOLM-13, MOLM-14); assay: Apoptosis, Apo-ONE Caspase 3/7 assay; type: cell-based, human; conditions: 1.0 μM, 72 h
Method: as §1
Cell viability was measured in parallel using the CellTiter-Blue assay, and the resulting data are presented as the ratio of Caspase activity to cell viability as per the manufacturer’s protocol. All assays were performed in triplicate, and data are presented as the mean ratios ± SD. Asterisks indicate statistical significance between each treatment group vs. the corresponding DMSO control group with p < 0.05 (Student’s t-test).

[8] = test system: Flt3-ITD in MV4-11 and MOLM-14 cells; assay: Immunoprecipitation/immunoblot of Flt3 phosphotyrosine content in AML cells; type: cell-based, human; conditions: compound at in vitro IC90 for Fes, 16 h (tandutinib: IC90 for Flt3-ITD, 6 h)
Method: as §3, §4

[9] = test system: Flt3-ITD in TF-1/Flt3-ITD cells; assay: Immunoprecipitation/immunoblot of Flt3 phosphotyrosine content in TF-1/Flt3-ITD cells; type: cell-based, human; conditions: compound at in vitro IC90 for Fes, 16 h (tandutinib: IC90 for Flt3-ITD, 6 h)
Method: as §3, §6

[10] = test system: Fes in TF-1/Flt3-ITD cells; assay: Immunoprecipitation/immunoblot of Fes pY713 in TF-1/Flt3-ITD cells; type: cell-based, human; conditions: compound at in vitro IC90 for Fes, 16 h (tandutinib: IC90 for Flt3-ITD, 6 h)
Method: as §3, §6

[11] = test system: Flt3-D835Y in TF-1/Flt3-D835Y cells; assay: Immunoprecipitation/immunoblot of Flt3-D835Y phosphotyrosine content in TF-1/Flt3-D835Y cells; type: cell-based, human; conditions: immunoblot, compound at in vitro IC90
Method: as §3, §6

Flt3-ITD in Ba/F3 cells = conditions: 100 nM; cited from earlier work
[12] = test system: Flt3-ITD-transformed Ba/F3 cells; conditions: cited from earlier work
[13] = test system: Flt3 and Fes in primary AML patient samples; parameters: method as in PMID 20111072; conditions: cited from earlier work
Stat5 activation = test system: Stat5 activation; parameters: method as in PMID 22411868; conditions: MV4-11 cells and AML patient samples; cited from earlier work
THP-1 cells [14] = assay: Apoptosis, Apo-ONE Caspase 3/7 assay; type: cell-based, human; conditions: 1.0 μM, 72 h
Method: as §1
Fig 3 Fes tyrosine kinase inhibitors induce apoptosis in Flt3-ITD^+ AML cell lines. The Flt3-ITD^+ cell lines MV4-11, MOLM-13, and MOLM-14, along with THP-1 (wild-type FLT3), were incubated with each of kinase inhibitors shown at a final concentration of 1 μM and apoptosis was measured 72 h later using the Apo-ONE Caspase 3/7 Assay (Promega). Cell viability was measured in parallel using the CellTiter-Blue assay, and the resulting data are presented as the ratio of Caspase activity to cell viability as per the manufacturer’s protocol. All assays were performed in triplicate, and data are presented as the mean ratios ± SD. […]

COc1cc2c(N3CCN(C(=O)Nc4ccc(OC(C)C)cc4)CC3)ncnc2cc1OCCCN1CCCCC1 [Tandutinib, reference compound]
IC50 (MOLM-13 cells): 532 nM | IC50 (MOLM-14 cells): 232 nM | IC50 (MV4-11 cells): 502 nM | IC50 (THP-1 cells [1]): > 3000 nM | Effect on Fes kinase activity in vitro (words) [2]: does not inhibit Fes in vitro or in cells | Effect on Fes kinase activity in vitro (words) ([2]; listed as tandutinib): no effect | Inhibition of Fes activation loop phosphorylation in MV4-11 and MOLM-14 cells [3]: little effect

COc1cc(N2CCC(N3CCN(C)CC3)CC2)ccc1Nc1ncc(Cl)c(Nc2ccccc2S(=O)(=O)C(C)C)n1 [TAE-684, reference compound]
IC50 (MOLM-13 cells): 166 nM | IC50 (MOLM-14 cells): 74 nM | IC50 (MV4-11 cells): 123 nM | IC50 (THP-1 cells [1]): > 3000 nM | IC50 ([4]; Homo sapiens, TF-1, empty vector control, 72 h): > 1000 nM | Nonspecific cytotoxicity in TF-1 cells expressing wild-type Flt3 or vector control cells ([4]; TF-1/Flt3-WT and vector control cells): some nonspecific cytotoxicity in the low micromolar range | IC50 (TF-1/Flt3-D835Y cells): 83 nM | IC50 (TF-1/Flt3-ITD cells): 82 nM | IC50 [5]: > 1000 nM | IC50 [6]: 19 to 166 nM | Apoptosis (Caspase 3/7 activity) in Flt3-ITD+ AML cell lines [7]: equal to or greater than that observed with tandutinib | Inhibition of Flt3-ITD phosphotyrosine content in MV4-11 and MOLM-14 cells [8]: no effect | Inhibition of Fes activation loop phosphorylation in MV4-11 and MOLM-14 cells [3]: did inhibit Fes | Inhibition of Flt3-ITD phosphotyrosine content in TF-1/Flt3-ITD cells [9]: no effect on Flt3-ITD; also recorded: did not affect Flt3-ITD phosphotyrosine content | Inhibition of Fes activation loop phosphorylation in TF-1/Flt3-ITD cells [10]: inhibited Fes | Inhibition of Flt3-D835Y phosphotyrosine content in TF-1/Flt3-D835Y cells [11]: complete inhibition; also recorded: completely suppressed | Effect on Flt3-ITD phosphotyrosine content in Ba/F3 cells expressing Flt3-ITD (Flt3-ITD in Ba/F3 cells): no effect | Effect on Flt3-ITD-transformed Ba/F3 cell proliferation [12]: no effect

Cc1cc(C)c(/C=C2\C(=O)Nc3ccccc32)[nH]1 [SU5416]
Effect on Flt3 and Fes activation in primary AML patient samples [13]: reduced both Flt3 and Fes activation

Cc1nc(Nc2ncc(C(=O)Nc3c(C)cccc3Cl)s2)cc(N2CCN(CCO)CC2)n1 [dasatinib]
Effect on Stat5 activation (Stat5 activation): reduced Stat5 activation

CN[C@@H]1C[C@H]2O[C@@](C)([C@@H]1OC)n1c3ccccc3c3c4c(c5c6ccccc6n2c5c31)C(=O)NC4 [staurosporine, reference compound]
Apoptosis (Caspase 3/7 activity) in Flt3-ITD+ AML cell lines [7]: strong apoptotic response | Apoptosis (Caspase 3/7 activity) in THP-1 cells (THP-1 cells [14]): strong apoptotic response
